Data: patent US11202783B2, “Use of aminoalkylbenzothiazepine derivatives” (CJ Healthcare Corporation, priority 2017, dated 2021)

How the values were obtained:
Assay type in all cases: in vivo, C57BL/6J mice
NAFLD-induced mice [1] = assay: NAFLD activity score (NAS) in mouse model of NAFLD induced by STZ administration and high-fat diet (Example 3); settings: 10 mg/kg; for Steatosis Score 0 (number of mice): score 0 = <5%; for Hepatocyte Ballooning Score 0 (number of mice): score 0 = None; for Steatosis Score 1 (number of mice): score 1 = 5% to 33%; for Lobular Inflammation Score 1 (number of mice): score 1 = <2 Foci/200×; for Hepatocyte Ballooning Score 1 (number of mice): score 1 = Some balloon cells; for Lobular Inflammation Score 2 (number of mice): score 2 = 2 to 4 Foci/200×; for Lobular Inflammation Score 3 (number of mice): score 3 = >4 Foci/200×
Experimental: Two-day-old C57BL/6J mice were administered with streptozotocin (STZ, 200 μg). Since the time the mice were 5 weeks old, they were supplied with a high-fat diet (60% fat) so as to induce NAFLD. The mouse model is an experimental animal model that is known to be capable of inducing diseases ranging from diabetes, fatty liver, steatohepatitis, liver fibrosis, to liver cancer within a short period of time of 20 weeks of age. Specifically, since the time the mice were 6 weeks old, they were orally administered with vehicle (0.5% hydroxypropyl methylcellulose+0.1% Tween 80) or Compound 1, which were prepared at various concentrations, at each concentration of 1 mg/kg, 3 mg/kg, and 10 mg/kg for 4 weeks, and the livers were removed by autopsy on the final day of the test. Parts of the removed livers were fixed in a 10% formalin solution for histopathology and tissue slides were prepared therefrom and subjected to H&E staining, whereas other parts of the removed livers were used for qRT-PCR analysis. The steatosis scores and relative mRNA expression levels were calculated in the same manner as in Example 1, and the results are shown in FIGS. 3 and 4, respectively. The calculated results were expressed in mean and standard deviation, and the significance of statistical differences between the groups was confirmed using Student's t-test (*; p<0.05).
As in Example 2, vehicle or Compound 1 at a dose of 10 mg/kg was administered to the animal model in which NAFLD was induced by STZ administration and a high-fat diet. […] Additionally, two comparative groups were prepared by administering each of obeticholic acid (OCA, product name: Ocaliva) and compound A (having the same mechanism of action with Compound 1) at a dose of 10 mg/kg each, instead of vehicle or Compound 1. NAS values were respectively calculated for Normal group, the vehicle group, Compound 1 (10 mg/kg) group, and the two comparative groups (OCA-administered and compound A-administered groups), as shown in Table 2. NAS represents the sum of the scores for respective symptoms, i.e., steatosis, lobular inflammation, and hepatocyte ballooning, and the scoring for each symptom was based on the criteria described in Table 1 below. Each group consisted of 8 mice, and the NAS value is defined as the sum of the mean scores from each symptom. As NAS value is higher, NAFLD is more severe. For example, when NAS value is 3 to 4 points, the mouse can be suspected to have non-alcoholic steatohepatitis (NASH), whereas when NAS value is 5 points or higher, the mouse can be determined to have NASH.

[2] = test system: expression levels of the gene (mRNA) associated with lipid synthesis, inflammation, and fibrosis; assay: Liver mRNA expression by qRT-PCR in mouse model of NAFLD induced by STZ administration and high-fat diet (Example 2); settings: oral, 1 mg/kg, 3 mg/kg, and mg/kg for 4 weeks; vs Control group; FIG. 4
Experimental: (§1) Furthermore, the relative expression level of mRNA in Normal group was calculated by qRT-PCR. Specifically, the mRNA expression levels of Srebp1 (i.e., a gene marker associated with lipid synthesis), and TIMP1 and Col1a1 (i.e., gene markers associated with fibrosis), etc. were measured through the SYBR-green RT-PCR analysis of the removed liver tissues described above, and the relative expression levels were calculated based on those of Normal group and are shown in FIG. 2. The calculated data were expressed in mean and standard deviation, and the significance of statistical differences between groups was confirmed using Student's t-test (*; p<0.05).
(§2) Two-day-old C57BL/6J mice were administered with streptozotocin (STZ, 200 μg). Since the time the mice were 5 weeks old, they were supplied with a high-fat diet (60% fat) so as to induce NAFLD. […] The steatosis scores and relative mRNA expression levels were calculated in the same manner as in Example 1, and the results are shown in FIGS. 3 and 4, respectively. The calculated results were expressed in mean and standard deviation, and the significance of statistical differences between the groups was confirmed using Student's t-test (*; p<0.05).

NAFLD-induced mice [3] = assay: Steatosis score in mouse model of NAFLD induced by STZ administration and high-fat diet (Example 2); settings: oral, FIG. 3
Experimental: The normal mice (not induced with NAFLD, denoted by “Normal” in drawings) and the mice induced with NAFLD using a high-fat high-cholesterol diet and fructose-containing drinking water (denoted by “Control” in drawings) were used as the control group. Specifically, histological scoring was performed in the same manner as in the clinical pathology scoring as follows: score 0 when the area occupied by fat in the liver tissue is less than 5%, score 1 when the area occupied by fat in the liver tissue is 5% to 33%, score 2 when the area occupied by fat in the liver tissue is 34% to 66%, and score 3 when the area occupied by fat in the liver tissue exceeds 66%.
as §2

NAFLD-induced mice [4] = assay: Degree of liver fibrosis by Sirius Red staining in STZ and high-fat diet NAFLD mouse model (Example 3); settings: 10 mg/kg; fibrosis area increased by NASH induction; FIG. 6
Experimental: as §2, with “NAFLD. The mouse model is an experimental animal model that is known to be capable of inducing diseases ranging from diabetes, fatty liver, steatohepatitis, liver fibrosis, to liver cancer within a short period of time of 20 weeks of age.” for “NAFLD.”
As in Example 2, vehicle or Compound 1 at a dose of 10 mg/kg was administered to the animal model in which NAFLD was induced by STZ administration and a high-fat diet. […] NAS values were respectively calculated for Normal group, the vehicle group, Compound 1 (10 mg/kg) group, and the two comparative groups (OCA-administered and compound A-administered groups), as shown in Table 2. […] For example, when NAS value is 3 to 4 points, the mouse can be suspected to have non-alcoholic steatohepatitis (NASH), whereas when NAS value is 5 points or higher, the mouse can be determined to have NASH. […]

[5] = test system: mRNA expression levels of Srebp1, TIMP1 and Col1a1 in liver tissues; assay: Liver mRNA expression by qRT-PCR in mouse model of NAFLD induced by high-fat high-cholesterol diet (Example 1); settings: 0.016% in diet, 12 weeks; vs Control group; relative to Normal group; FIG. 2
Source text: (§3) Eight-week-old C57BL/6J mice were supplied with a high-fat high-cholesterol diet (60% fat and 0.5% cholesterol) and drinking water containing 4.2% fructose for 16 weeks so as to induce non-alcoholic fatty liver disease (NAFLD).
(§4) After the supply of a high-fat high-cholesterol diet for 4 weeks, the diet was replaced with another high-fat high-cholesterol diet prepared to contain Compound 1 at a concentration of 0.016% and supplied for an additional 12 weeks, and the livers were removed by autopsy on the final day of the test. Parts of the removed livers were fixed in a 10% formalin solution for histopathology and tissue slides were prepared therefrom and subjected to H&E staining, whereas other parts of the removed livers were used for quantitative real-time PCR (qRT-PCR) analysis.
as §1

NAFLD-induced mice [6] = assay: Steatosis score (H&E histology) in mouse model of NAFLD induced by high-fat high-cholesterol diet and fructose drinking water (Example 1); settings: high-fat high-cholesterol diet containing 0.016% of compound for 12 weeks; vs Control group; FIG. 1
Source text: as §3, §4
The normal mice (not induced with NAFLD, denoted by “Normal” in drawings) and the mice induced with NAFLD using a high-fat high-cholesterol diet and fructose-containing drinking water (denoted by “Control” in drawings) were used as the control group. […]

[7] = Blood lipid levels in STZ and high-fat diet NAFLD mouse model (Example 4); settings: 1 mg/kg, 3 mg/kg, and 10 mg/kg; compared to vehicle administered group; FIG. 7
Experimental: as §2, with “NAFLD. The mouse model is an experimental animal model that is known to be capable of inducing diseases ranging from diabetes, fatty liver, steatohepatitis, liver fibrosis, to liver cancer within a short period of time of 20 weeks of age.” for “NAFLD.”
Blood specimens were secured before autopsy by collecting blood samples from an experimental animal model prepared as in Example 2, in which NAFLD was induced by administering STZ and supplying a high-fat diet, and to which Compound 1 was administered at doses of 1 mg/kg, 3 mg/kg, and 10 mg/kg. The obtained blood samples were centrifuged to separate blood plasma, and the remaining samples were analyzed for blood lipid levels (e.g., levels of total cholesterol, high-density lipoprotein (HDL), and low-density lipoprotein (LDL)) using a biochemical analyzer (Hitachi 7100), and the results are shown in FIG. 7. […]

Row | Structure (SMILES) | Steatosis Score 0 (number of mice) (NAFLD-induced mice [1]; n=8 mice per group) | Hepatocyte Ballooning Score 0 (number of mice) (NAFLD-induced mice [1]; n=8 mice per group) | Steatosis Score 1 (number of mice) (NAFLD-induced mice [1]; n=8 mice per group) | Lobular Inflammation Score 1 (number of mice) (NAFLD-induced mice [1]; n=8 mice per group) | Hepatocyte Ballooning Score 1 (number of mice) (NAFLD-induced mice [1]; n=8 mice per group) | Lobular Inflammation Score 2 (number of mice) (NAFLD-induced mice [1]; n=8 mice per group) | Lobular Inflammation Score 3 (number of mice) (NAFLD-induced mice [1]; n=8 mice per group) | expression levels of the gene (mRNA) associated with lipid synthesis, inflammation, and fibrosis [2] | steatosis score (NAFLD-induced mice [3]; 1 mg/kg, 3 mg/kg and 10 mg/kg for 4 weeks, vs vehicle Control group) | steatosis score (NAFLD-induced mice [3]; dose of 1 mg/kg for 4 weeks, vs vehicle) | fibrosis area (Sirius Red positive area) (NAFLD-induced mice [4]) | mRNA level of Col1a1 (liver) [5] | mRNA level of Srebp1 (liver) [5] | mRNA level of TIMP1 (liver) [5] | steatosis score (NAFLD-induced mice [6]) | NAS (NAFLD activity score) (NAFLD-induced mice [1]; compared to comparative groups OCA and Compound A at identical dose, FIG. 5) | Hepatocyte Ballooning Score 2 (number of mice) (NAFLD-induced mice [1]; n=8 mice per group, score 2 = Many cells/Prominent ballooning) | blood level of HDL [7] | blood level of LDL [7]
1 | CC[C@H]1[C@@H](O)[C@@H]2[C@H](CC[C@]3(C)[C@@H]([C@H](C)CCC(=O)O)CC[C@@H]23)[C@@]2(C)CC[C@@H](O)C[C@@H]12 [OCA, obeticholic acid, reference compound] | 2 | 4 | 6 | 1 | 4 | 5 | 2 |  |  |  |  |  |  |  |  |  |  |  | 
2 | CCCCC1(CCCC)CN(c2ccc(F)cc2)c2cc(SC)c(CNCC(=O)O)cc2S(=O)(=O)C1 [Compound 1, 2-(((3,3-dibutyl-5-(4-fluorophenyl)-7-methylthio-1,1-dioxido-2,3,4,5-tetrahydrobenzo[b][1,4]thiazepin-8-yl)methyl)amino)acetic acid] | 4 | 6 | 4 | 2 | 1 | 5 | 1 | significant decreases | lower steatosis scores | reduced steatosis score | significant decrease in the fibrosis area | remarkable decrease with statistical significance | remarkable decrease with statistical significance | remarkable decrease with statistical significance | significant decrease in steatosis score close to that of Normal group | significantly reduced NAS values | 1 | higher level of HDL | lower level of LDL
